The supplement of paper PMC11208160

Experiment: recombinant barcode read abundance after kanamycin selection (control-corrected) (log10(CPM+1)); higher = more efficient recombination; sequences stand for … in AGTGCAGAGAAAATCGGCCAGTTTTCTCTGCCTGCAGTCCGCATGCCGT…AGATTTATGCAGCGGACTGCCTTTCTCCCAAAGTGATAAACCGGACAGTATCATGGACCGGTTTTCCCGGTAATCCGTATTTGCAAGGTTGGTTTCACT; site = the 11-nt target
Method in brief: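 Each value is log10(CPM+1). It describes recombination efficiency, taken as averaged, control-corrected counts per million of barcodes at recombinant junctions. The pooled E. coli library paired targets with IS621 bridge RNA target-binding loops, was co-electroporated with a donor plasmid, and was plated twice on chloramphenicol/ampicillin LB agar (control) and twice on chloramphenicol/ampicillin/kanamycin containing 0.1 mM IPTG.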
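Also: IS621 recombinase and bridge RNA in Escherichia coli cells.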

Row | Sequence | recombinant barcode read abundance (log10)
1 | AGGACCACTTGGGTTCTAACCTGTTGCCA (site AGGACCACTTG) | 0.868
2 | AGGACCACTTGGGTTCTAACCTGTTGCCA (site ATGACCGCTTG) | 0.0948
3 | AGGAGCCCTTGGGTTCTAACCTGTTGCGA (site AGGAGCCCTTC) | 2.84
4 | AGGAGCCCTTGGGTTCTAACCTGTTGCGA (site CGGAGCCCTCC) | 0.0589
5 | AGGAGTCCTTGGGTTCTAACCTGTTGCGT (site AGCAGTCCTAC) | 0.182
6 | AGGAGTCCTTGGGTTCTAACCTGTTGCGT (site AGGAGTCCTAC) | 2.57
7 | AGGAGTCCTTGGGTTCTAACCTGTTGCTG (site AGGAATCCTAA) | 1.57
8 | AGGAGTCCTTGGGTTCTAACCTGTTGCTG (site AGGAGTCCTCA) | 2.08
9 | AGGATTCCTTGGGTTCTAACCTGTTGCCT (site AAGATTCCTAG) | 0.171
10 | AGGATTCCTTGGGTTCTAACCTGTTGCCT (site ACGATTCCTAG) | 0.634
11 | AGGATTCCTTGGGTTCTAACCTGTTGCCT (site AGGATTCCTAG) | 1.16
12 | AGGATTCCTTGGGTTCTAACCTGTTGCCT (site ATGATTCCTAG) | 0.158
13 | AGGCCCACTTGGGTTCTAACCTGTTGCTC (site AGGCCCACTGA) | 1.81
14 | AGGCCCACTTGGGTTCTAACCTGTTGCTC (site AGGTCCACTCA) | 0.166
15 | AGGCCGTCTTGGGTTCTAACCTGTTGCGT (site AGGCAGTCTAG) | 0.195
16 | AGGCCGTCTTGGGTTCTAACCTGTTGCGT (site AGGCCGTCTAC) | 2.43
17 | AGGCGCCCTTGGGTTCTAACCTGTTGCAT (site AGGCGCCCTAT) | 1.29
18 | AGGCGCCCTTGGGTTCTAACCTGTTGCAT (site AGGCGCCCTCT) | 0.041
19 | AGGCGCCCTTGGGTTCTAACCTGTTGCAT (site AGGCGCCCTGT) | 0.219
20 | AGGCGCCCTTGGGTTCTAACCTGTTGCAT (site AGGCGCCCTTT) | 0.244
21 | AGGCGTCCTTGGGTTCTAACCTGTTGCCG (site AGGCGTCCTAG) | 0.964
22 | AGGCGTCCTTGGGTTCTAACCTGTTGCCG (site AGGCGTCCTCG) | 1.24

Row | Sequence | recombinant barcode read abundance (log10)
23 | AGGCGTCCTTGGGTTCTAACCTGTTGCCG (site AGGCGTCCTGG) | 0.227
24 | AGGCGTCCTTGGGTTCTAACCTGTTGCCG (site AGGCGTCCTTG) | 0.122
25 | AGGCGTCCTTGGGTTCTAACCTGTTGCCT (site AGGCGTCCTAG) | 1.44
26 | AGGCGTCCTTGGGTTCTAACCTGTTGCCT (site AGGCGTCCTCG) | 0.249
27 | AGGCGTCCTTGGGTTCTAACCTGTTGCCT (site AGGCGTCCTGG) | 1.03
28 | AGGCGTCCTTGGGTTCTAACCTGTTGCCT (site AGGCGTCCTTG) | 0.374
29 | AGGGATCCTTGGGTTCTAACCTGTTGCGT (site AGGGATCCTAC) | 3.09
30 | AGGGATCCTTGGGTTCTAACCTGTTGCGT (site ATGGATCCTAC) | 1.29
31 | AGGGCACCTTGGGTTCTAACCTGTTGCAG (site AGGGCACCTCT) | 1.56
32 | AGGGCACCTTGGGTTCTAACCTGTTGCAG (site CATCGGACTTC) | 0.142
33 | AGGGCGTCTTGGGTTCTAACCTGTTGCCG (site AGGGCATCTAG) | 0.0811
34 | AGGGCGTCTTGGGTTCTAACCTGTTGCCG (site AGGGCGTCTCG) | 1.69
35 | AGGGTCACTTGGGTTCTAACCTGTTGCCT (site AAGGTCACTAG) | 0.274
36 | AGGGTCACTTGGGTTCTAACCTGTTGCCT (site ACGGTCACTAG) | 0.653
37 | AGGGTCACTTGGGTTCTAACCTGTTGCCT (site AGGGTCACTAG) | 2.23
38 | AGGGTCACTTGGGTTCTAACCTGTTGCCT (site ATGGTCACTAG) | 1.06
39 | AGGGTGTCTTGGGTTCTAACCTGTTGCTG (site AGGGTGCCTTA) | 0.105
40 | AGGGTGTCTTGGGTTCTAACCTGTTGCTG (site AGGGTGTCTCA) | 2.55
41 | AGGTACACTTGGGTTCTAACCTGTTGCAC (site AGGTACACTGT) | 2.22
42 | AGGTACACTTGGGTTCTAACCTGTTGCAC (site TTCAGACCTAG) | 0.0924
43 | AGGTCCACTTGGGTTCTAACCTGTTGCTG (site AGGCCCACTGA) | 0.109
44 | AGGTCCACTTGGGTTCTAACCTGTTGCTG (site AGGTCCACTCA) | 1.31

Row | Sequence | recombinant barcode read abundance (log10)
45 | AGGTCCTCTTGGGTTCTAACCTGTTGCCT (site AGGTCCTCTAA) | 1.05
46 | AGGTCCTCTTGGGTTCTAACCTGTTGCCT (site AGGTCCTCTAC) | 0.233
47 | AGGTCCTCTTGGGTTCTAACCTGTTGCCT (site AGGTCCTCTAG) | 2.06
48 | AGGTCCTCTTGGGTTCTAACCTGTTGCCT (site AGGTCCTCTAT) | 0.703
49 | AGGTCTACTTGGGTTCTAACCTGTTGCCA (site AGGTCTACTTG) | 0.6
50 | AGGTCTACTTGGGTTCTAACCTGTTGCCA (site TTAGACCCTCT) | 0.1
51 | AGGTCTACTTGGGTTCTAACCTGTTGCGG (site AGGTCTACTCC) | 1.63
52 | AGGTCTACTTGGGTTCTAACCTGTTGCGG (site GAAAACTCTAG) | 0.0493
53 | AGGTGTCCTTGGGTTCTAACCTGTTGCGA (site AGGTGTCCTTC) | 2.36
54 | AGGTGTCCTTGGGTTCTAACCTGTTGCGA (site TATATATCTAT) | 0.247
55 | AGGTTCCCTTGGGTTCTAACCTGTTGCGG (site AGGTTCCCTCC) | 1.96
56 | AGGTTCCCTTGGGTTCTAACCTGTTGCGG (site CTAGGAACTTA) | 0.11
57 | AGGTTCCCTTGGGTTCTAACCTGTTGCTG (site AGGTTCCCTAA) | 0.154
58 | AGGTTCCCTTGGGTTCTAACCTGTTGCTG (site AGGTTCCCTCA) | 2.46
59 | AGGTTCCCTTGGGTTCTAACCTGTTGCTG (site AGGTTCCCTGA) | 0.142
60 | AGGTTCCCTTGGGTTCTAACCTGTTGCTG (site AGGTTCCCTTA) | 0.358
61 | AGTAAGACTTGGGTTCTAACCTGTTGCGT (site AGTAAGACTAA) | 0.062
62 | AGTAAGACTTGGGTTCTAACCTGTTGCGT (site AGTAAGACTAC) | 2.25
63 | AGTAAGACTTGGGTTCTAACCTGTTGCGT (site AGTAAGACTAG) | 0.482
64 | AGTAAGACTTGGGTTCTAACCTGTTGCGT (site AGTAAGACTAT) | 1.22
65 | AGTAAGACTTGGGTTCTAACCTGTTGCTT (site AGTAAGACTAA) | 0.281
66 | AGTAAGACTTGGGTTCTAACCTGTTGCTT (site AGTAAGACTAC) | 0.354

Row | Sequence | recombinant barcode read abundance (log10)
67 | AGTAAGACTTGGGTTCTAACCTGTTGCTT (site AGTAAGACTAG) | 0.202
68 | AGTAAGACTTGGGTTCTAACCTGTTGCTT (site AGTAAGACTAT) | 0.15
69 | AGTACTACTTGGGTTCTAACCTGTTGCCT (site AATACTACTAG) | 0.0591
70 | AGTACTACTTGGGTTCTAACCTGTTGCCT (site ACTACTACTAG) | 0.0106
71 | AGTACTACTTGGGTTCTAACCTGTTGCCT (site AGTACTACTAG) | 0.25
72 | AGTACTACTTGGGTTCTAACCTGTTGCCT (site ATTACTACTAG) | 0.162
73 | AGTAGGCCTTGGGTTCTAACCTGTTGCGG (site AGTAGGCCTCC) | 1.4
74 | AGTAGGCCTTGGGTTCTAACCTGTTGCGG (site GGTAGGACTCC) | 0.303
75 | AGTAGGGCTTGGGTTCTAACCTGTTGCAG (site AGTAGGGCTCT) | 2.65
76 | AGTAGGGCTTGGGTTCTAACCTGTTGCAG (site CGTAGGGCTCG) | 0.0704
77 | AGTATCGCTTGGGTTCTAACCTGTTGCGG (site AGTATCGCTCC) | 1.11
78 | AGTATCGCTTGGGTTCTAACCTGTTGCGG (site AGTCTCGCTCC) | 0.11
79 | AGTATCGCTTGGGTTCTAACCTGTTGCGG (site AGTGTCGCTCC) | 0.0704
80 | AGTATCGCTTGGGTTCTAACCTGTTGCGG (site AGTTTCGCTCC) | 0.246
81 | AGTATGTCTTGGGTTCTAACCTGTTGCCT (site AGTATGTCTAG) | 1.13
82 | AGTATGTCTTGGGTTCTAACCTGTTGCCT (site CGTATGTCTAG) | 0.184
83 | AGTATGTCTTGGGTTCTAACCTGTTGCCT (site GGTATGTCTAG) | 0.0305
84 | AGTATGTCTTGGGTTCTAACCTGTTGCCT (site TGTATGTCTAG) | 0.116
85 | AGTCACACTTGGGTTCTAACCTGTTGCAG (site AGTCACACTCT) | 1.44
86 | AGTCACACTTGGGTTCTAACCTGTTGCAG (site TTGTGAGCTGC) | 0.153
